{"source": "paper PMC7968666", "about": "“The pharmacokinetics and drug-drug interactions of ivermectin in Aedes aegypti mosquitoes” (PLoS Pathogens, 2021)", "key": {"[1]": {"experiment": "Pharmacokinetic and drug-drug interaction studies in blood-fed mosquitoes (concentration-time courses, population PK modelling)", "settings": "for Ivermectin concentration in single mosquito: IVM (0.1 µg/ml) in human blood, Batch 4, individual mosquitoes, listed as IVM"}, "Aedes aegypti mosquitoes": {"test_system": "Aedes aegypti mosquitoes", "experiment": "Drug effect on mosquito fecundity (eggs laid after 96 h)", "format": "in vivo", "procedure": "The mixtures were rotated at room temperature for 30 min to ensure a uniform drug distribution (Rotator Genie, Scientific Industries, Bohemia, USA). […] Twelve hours later, the tap water was also removed to starve the mosquitoes. […] The mosquitoes were then feeding from blood through the netting and the Parafilm membrane. […] The photoperiod of the climate chamber and the insectary were synchronised. […] The engorged mosquitoes were either directly frozen at -20°C or returned to the climate chamber for certain time periods to assess the PK. […] Blood feeding was done as described above. […] In contrast to the PK experiments, the mosquitoes had unlimited access to water because a moistened oviposition substrate was inserted into the paper cup. Fecundity was defined as the total number of eggs laid after 96 h. […] The filter paper served as the oviposition substrate. The cotton wool was soaked with fresh water and covered by a new filter paper after 48, 72, and 96 h post-treatment. After the assay, the eggs were left to mature for 24 h in the insectary. […] R Foundation for Statistical Computing, http://www.R-project.org, Vienna, Austria). Normality was assessed using the Shapiro-Wilk test. For normally distributed data (mortality, fecundity), group differences were assessed with one-way ANOVA testing, and, where applicable, followed up with Tukey's test. Group differences in fertility (not normally distributed) were evaluated with Kruskal-Wallis one-way analysis of variance, and Wilcoxon rank sum testing as post-hoc."}, "[2]": {"settings": "ivermectin 0.1 μg/ml plus ritonavir 10 μg/ml in blood"}, "[3]": {"settings": "non-parametric bootstrap analysis (n = 1’000)"}, "[4]": {"settings": "4 days, IVM 0.1, KCZ 5, RIF 10, RTV 10, PBO 10 μg/ml in blood, 50 mosquitoes"}}, "note": "Where “and” joins values, the source holds several entries; their conditions need not be identical. Equal entries are not always repeated. Entries after “also recorded” stand apart in the source; their conditions may differ.", "data": [{"smiles": "CCC(C)C1OC2(CCC1C)CC1CC(CC=C(C)C(OC3CC(OC)C(OC4CC(OC)C(O)C(C)O4)C(C)O3)C(C)C=CC=C3COC4C(O)C(C)=CC(C(=O)O1)C34O)O2", "note": "(centres unmarked) [ivermectin]", "values": [{"measurement": "zero-order elimination rate", "setting": "[1]; 0.1 μg/ml ivermectin in blood, pharmacometric modelling", "result": 5.5, "unit": "pg/h"}, {"measurement": "Course / extent of elimination from the mosquitoes", "setting": "[1]; IVM 0.1, KCZ 5, RIF 10, PBO 10 μg/ml in blood, up to 72 h", "result": "after 72 h only traces of ivermectin were still detectable"}, {"measurement": "Type of elimination kinetics in the mosquito", "setting": "[1]; IVM 0.1, KCZ 5, RIF 10, RTV 10, PBO 10 μg/ml in blood", "result": "zero-order elimination; also recorded: zero-order kinetics"}, {"measurement": "Ivermectin concentration in single mosquito", "setting": "[1]; 0 h post feeding", "result": "0.079 ng/mg msq (2×) and 0.077 ng/mg msq (2×) and 0.075 ng/mg msq and 0.084 ng/mg msq (2×) and 0.087 ng/mg msq and 0.089 ng/mg msq (2×) and 0.085 ng/mg msq and 0.088 ng/mg msq and 0.078 ng/mg msq (2×) and 0.083 ng/mg msq (4×) and 0.062 ng/mg msq and 0.074 ng/mg msq"}, {"measurement": "Ivermectin concentration in single mosquito", "setting": "[1]; 6 h post feeding", "result": "0.100 ng/mg msq (2×) and 0.086 ng/mg msq (2×) and 0.098 ng/mg msq and 0.092 ng/mg msq (2×) and 0.079 ng/mg msq and 0.085 ng/mg msq and 0.104 ng/mg msq and 0.082 ng/mg msq and 0.094 ng/mg msq and 0.083 ng/mg msq and 0.103 ng/mg msq (2×) and 0.160 ng/mg msq and 0.148 ng/mg msq and 0.096 ng/mg msq and 0.111 ng/mg msq and 0.113 ng/mg msq"}, {"measurement": "Ivermectin concentration in single mosquito", "setting": "[1]; 12 h post feeding", "result": "0.073 ng/mg msq and 0.065 ng/mg msq and 0.093 ng/mg msq (2×) and 0.095 ng/mg msq (2×) and 0.090 ng/mg msq (3×) and 0.085 ng/mg msq (2×) and 0.063 ng/mg msq and 0.087 ng/mg msq and 0.077 ng/mg msq and 0.104 ng/mg msq and 0.116 ng/mg msq and 0.103 ng/mg msq and 0.086 ng/mg msq and 0.098 ng/mg msq and 0.124 ng/mg msq"}, {"measurement": "Ivermectin concentration in single mosquito", "setting": "[1]; 24 h post feeding", "result": "0.073 ng/mg msq (2×) and 0.070 ng/mg msq (2×) and 0.074 ng/mg msq and 0.068 ng/mg msq and 0.090 ng/mg msq and 0.064 ng/mg msq (3×) and 0.067 ng/mg msq and 0.078 ng/mg msq and 0.055 ng/mg msq and 0.062 ng/mg msq and 0.058 ng/mg msq and 0.072 ng/mg msq and 0.056 ng/mg msq (2×) and 0.084 ng/mg msq and 0.057 ng/mg msq"}, {"measurement": "Ivermectin concentration in single mosquito", "setting": "[1]; 36 h post feeding", "result": "0.068 ng/mg msq (3×) and 0.044 ng/mg msq and 0.052 ng/mg msq and 0.090 ng/mg msq and 0.039 ng/mg msq and 0.038 ng/mg msq and 0.056 ng/mg msq and 0.053 ng/mg msq and 0.071 ng/mg msq and 0.060 ng/mg msq (2×) and 0.050 ng/mg msq and 0.036 ng/mg msq and 0.051 ng/mg msq and 0.062 ng/mg msq and 0.043 ng/mg msq and 0.037 ng/mg msq and 0.073 ng/mg msq"}, {"measurement": "IOV dose (inter-occasion variability), estimate", "setting": "[1]; final population PK model", "result": 0.11}, {"measurement": "Inter-individual variability (ω) of dose, estimate", "setting": "[1]; final population PK model", "result": 0.075}, {"measurement": "Inter-individual variability (ω) of kel, estimate", "setting": "[1]; final population PK model", "result": 0.25}, {"measurement": "kel (zero-order elimination rate), estimate", "setting": "[1]; final population PK model, 0.1 μg/ml ivermectin in blood", "result": 0.0055, "unit": "ng/h"}, {"measurement": "dose (amount absorbed from the blood meal), estimate", "setting": "[1]; final population PK model, 0.1 μg/ml ivermectin in blood, median mosquito weight 3.4 mg", "result": 0.28, "unit": "ng"}, {"measurement": "Amount of ivermectin imbibed per feeding, mean ± SD", "setting": "[1]; human blood spiked with 0.1 μg/ml ivermectin, four batches", "result": "0.36 ± 0.06", "unit": "ng"}, {"measurement": "Effect of ritonavir on the elimination rate of ivermectin", "setting": "[1]; [2]", "result": "not affected"}, {"measurement": "Increase of ivermectin exposure (AUC) compared to ivermectin alone", "setting": "[1]; [2]", "result": 29, "unit": "%"}, {"measurement": "IOV dose, bootstrap median", "setting": "[1]; [3]", "result": 0.11}, {"measurement": "Inter-individual variability (ω) of dose, bootstrap median", "setting": "[1]; [3]", "result": 0.075}, {"measurement": "Inter-individual variability (ω) of kel, bootstrap median", "setting": "[1]; [3]", "result": 0.25}, {"measurement": "Tlag, bootstrap median", "setting": "[1]; [3]", "result": 18.5, "unit": "h"}, {"measurement": "dose, bootstrap median", "setting": "[1]; [3]", "result": 0.28, "unit": "ng"}, {"measurement": "Tlag_add_rit, bootstrap median", "setting": "[1]; non-parametric bootstrap analysis (n = 1’000), ritonavir co-treatment", "result": 11.4, "unit": "h"}, {"measurement": "Mosquito fecundity, Batch 1, mg eggs (4 days)", "setting": "Aedes aegypti mosquitoes; [4]", "result": 18.22, "unit": "mg eggs"}, {"measurement": "Mosquito fecundity, Batch 2, mg eggs (4 days)", "setting": "Aedes aegypti mosquitoes; [4]", "result": 8.65, "unit": "mg eggs"}, {"measurement": "Mosquito fecundity, Batch 3, mg eggs (4 days)", "setting": "Aedes aegypti mosquitoes; [4]", "result": 16.69, "unit": "mg eggs"}, {"measurement": "Effect on number of mosquito eggs (fecundity) compared to blank blood", "setting": "Aedes aegypti mosquitoes; four days, IVM 0.1, RTV 10, PBO 10 μg/ml in blood", "result": "reduced the number of mosquito eggs"}]}]}
